The target in the assay is T1, SLC25A1 (mitochondrial citrate carrier) (Homo sapiens, UniProt P53007).
T1 construct: Histidine-tagged recombinant purified SLC25A1
Description: SPR (Biacore […], NTA chip, […] steady-state fit). Format: binding.

T1 sequence (P53007 14-311): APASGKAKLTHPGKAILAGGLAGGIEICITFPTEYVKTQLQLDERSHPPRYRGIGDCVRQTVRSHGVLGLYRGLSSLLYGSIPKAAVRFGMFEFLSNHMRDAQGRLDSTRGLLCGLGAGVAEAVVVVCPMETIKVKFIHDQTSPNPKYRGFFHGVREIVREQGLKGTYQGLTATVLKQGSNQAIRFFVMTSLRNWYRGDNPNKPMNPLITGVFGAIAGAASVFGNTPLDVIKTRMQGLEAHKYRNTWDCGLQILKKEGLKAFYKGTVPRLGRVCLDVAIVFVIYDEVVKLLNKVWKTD

In the case of `O=C(O)c1ccc(Cl)c(S(=O)(=O)Nc2cccc([N+](=O)[O-])c2)c1` [CTPI-1], the Kd (usually the equilibrium constant for the complex coming apart) stood at 63.6 µM.
Consider `O=C(O)c1ccccc1NS(=O)(=O)c1ccc(Cl)c([N+](=O)[O-])c1` [CTPI-2], for which the Kd turned out to be 3.5 µM.

These data come from article PMC6030199, “The mitochondrial citrate carrier, SLC25A1, drives stemness and therapy resistance in non-small cell lung cancer” (Cell Death and Differentiation, 2018).
